Data as given in patent US7709526B2, “Use of cyclolignans and new cyclolignans” (Biovitrum AB, priority 2001, dated 2010).
Where two headings read alike, the source gives them in different places.

Experiments:
IGF-1R [1] = biological target: T1, IGF-1R (Homo sapiens, UniProt P08069); assay: IGF-1R phosphorylation/autophosphorylation in intact FM55 melanoma cells (immunoprecipitation, Western blotting, OD); format: cell-based; parameters: The cells were then isolated and subjected to immuno-precipitation of the IGF-1R; endogenous in cells; host or cells: FM55 melanoma cells; conditions: for Level of IGF-1R phosphorylation in intact cells: OD, control cells = 100%
Method: The isolated cells were lyzed in 10 ml ice-cold PBSTDS containing protease inhibitors (Carlberg, M., et al., J Biol Chem 271:17453-17462, 1996). 50 μl protein A or G agarose was added in 1 ml sample and incubated for 15 min at 4° C. on an orbital shaker. After centrifugation for 10 min at 10,000 r/min at 4° C. the supernatant was saved. The protein content was determined by a dye-binding assay with a reagent purchased from Bio-Rad. Bovine serum albumin was used as a standard. 15 μl Protein G Plus agarose and 5 μl anti-IGF-1R were added. After a 3 h incubation at 4° C. on an orbital shaker the precipitate was collected by pulse centrifugation in a micro centrifuge at 14,000×g for 10 s. The supernatant was discarded and the pellet was washed 3 times with PBSTDS.
Protein samples were solved in a 2×-sample buffer containing Laemmli buffer and 0.5% […] and boiled for 5 min at 96° C. Samples were separated by SDS-PAGE with a 4% stacking gel and 7.5% separation gel. Molecular weight markers (Bio Rad, Sweden) were run simultaneously in all experiments.
Following SDS-PAGE the proteins were transferred overnight to nitro-cellulose membranes (Hybond, Amersham, UK) and then blocked for 1 h at room temperature in a solution of 4% skimmed milk powder and 0.02% Tween 20 in PBS, pH 7.5. Incubations with the primary antibodies were performed for 1 h at room temperature, followed by 3 washes with PBS with Tween and incubation with the second antibody for 1 h room temperature. After another 3 washes the membranes were incubated with Streptavidin-labelled horseradish peroxidase for 30 min and then detected using Amersham ECL system (Amersham, UK) The films were scanned by Fluor-S (BioRad).
Melanoma cells (line FM55) were seeded in 6-cm dishes, at a concentration of 10,000 cells/cm^2 in Minimal Essential Medium supplemented with 10% fetal calf serum (FCS). […] Treatment with 0 μM represents untreated controls. The cells were then isolated and subjected to immuno-precipitation of the IGF-1R. The immunoprecipitates, containing purified IGF-1R, were fractionated by gel electrophoresis. Phosphorylation of IGF-1R was detected by an anti-phosphotyrosine antibody using Western blotting. The obtained signals represent phosphorylated IGF-1R and the intensity of signals represents amounts of phosphorylated IGF-1R. Details of the methods used are described above. The intensities are quantified by a scanner, which measures the optical density (OD) of the signals. For the control cells the OD is set at 100%. The blank (OD 0%) represents the background. The results given in Table 1 below are mean values of 3 experiments.
FM 55 melanoma cells were cultured in the same way as described in Experiment 1. When reaching a density of 65,000 cells/cm^2 in the dishes, they were treated for 1 h with 0.05 μM podophyllotoxin, deoxypodophyllotoxin, acetylpodophyllotoxin, epipodophyllotoxin, 4′-demethyl-podophyllotoxin and podophyllotoxone. The cells were then harvested for assay and quantification of IGF-1R autophosphorylation as described above. The values shown in Table 2 represent means of 3 experiments.
Target sequence in this assay (P08069 31-1367): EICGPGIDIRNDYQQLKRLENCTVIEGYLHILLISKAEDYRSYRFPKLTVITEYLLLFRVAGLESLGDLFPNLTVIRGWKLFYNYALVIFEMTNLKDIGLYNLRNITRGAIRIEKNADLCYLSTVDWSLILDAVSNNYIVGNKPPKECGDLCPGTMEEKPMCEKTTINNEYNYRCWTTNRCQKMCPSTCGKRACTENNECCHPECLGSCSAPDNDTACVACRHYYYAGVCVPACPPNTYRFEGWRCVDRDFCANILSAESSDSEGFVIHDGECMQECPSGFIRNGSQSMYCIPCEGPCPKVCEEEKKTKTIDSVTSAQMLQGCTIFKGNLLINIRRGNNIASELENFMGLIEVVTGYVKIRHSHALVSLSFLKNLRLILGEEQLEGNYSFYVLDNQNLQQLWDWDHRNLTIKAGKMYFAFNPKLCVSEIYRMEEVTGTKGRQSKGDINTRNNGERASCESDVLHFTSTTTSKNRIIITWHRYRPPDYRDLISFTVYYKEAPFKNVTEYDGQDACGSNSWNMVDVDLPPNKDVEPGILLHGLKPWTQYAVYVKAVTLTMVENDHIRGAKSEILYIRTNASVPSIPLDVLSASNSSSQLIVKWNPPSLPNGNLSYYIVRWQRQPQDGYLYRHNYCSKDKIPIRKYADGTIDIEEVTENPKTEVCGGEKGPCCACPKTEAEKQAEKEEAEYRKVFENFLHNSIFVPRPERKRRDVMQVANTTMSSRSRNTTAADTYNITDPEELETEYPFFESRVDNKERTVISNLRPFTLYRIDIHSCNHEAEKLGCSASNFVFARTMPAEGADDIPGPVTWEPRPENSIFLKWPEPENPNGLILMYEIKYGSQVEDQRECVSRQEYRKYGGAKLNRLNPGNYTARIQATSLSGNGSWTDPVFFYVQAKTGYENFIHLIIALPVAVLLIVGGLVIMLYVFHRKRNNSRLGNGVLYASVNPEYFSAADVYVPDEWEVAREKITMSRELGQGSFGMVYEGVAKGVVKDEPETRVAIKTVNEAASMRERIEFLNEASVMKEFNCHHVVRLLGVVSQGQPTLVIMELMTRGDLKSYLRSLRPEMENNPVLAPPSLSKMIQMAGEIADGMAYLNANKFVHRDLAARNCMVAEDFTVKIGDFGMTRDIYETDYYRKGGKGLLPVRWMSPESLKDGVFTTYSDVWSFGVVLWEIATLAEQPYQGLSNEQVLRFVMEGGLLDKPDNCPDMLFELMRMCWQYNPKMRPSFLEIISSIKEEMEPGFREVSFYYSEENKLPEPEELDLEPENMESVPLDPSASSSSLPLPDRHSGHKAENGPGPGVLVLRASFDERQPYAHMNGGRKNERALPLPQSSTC

IGF-1R beta-subunit = biological target: T2, IGF-1R beta-subunit (Homo sapiens, UniProt P08069); conditions: melanoma cells, 15 microM; cited from earlier work
T2 construct: host or cells: melanoma cells

[2] = tested on: K562/S chronic myeloid leukemia cells; assay: Viability of leukemia cells, K562/S; format: cell-based, human; conditions: 72 h, read-out: IC50 for viability of leukemia cell lines
Method: (§1) The human chronic myeloid leukemia K562/S and K562/Vcr30 lines and the acute myeloid leukemia cell lines HL60/0 and HL60/Nov were obtained from ATCC. The K562/S and HL60/0 are wild type (non-resistant) cells, whereas K562/Vcr30 and HL60/Nov are cytostatic-resistant sublines. All leukemia cell lines were cultured in RPMI 1640 medium supplemented with 10% fetal bovine serum and with 2 mM glutamine, 1% benzyl-penicillin and streptomycin. The cells were grown in tissue culture flasks maintained at 95% air/5% CO2 atmosphere at 37° C. in a humidified incubator. For the experiments 25,000 cells were cultured in 60-mm plastic dishes or 96-well plastic plates. The experiments on leukemia cells were performed in collaboration with Associate professor Sigurd Vitols, Department of Pharmacology, Karolinska Hospital (Stockholm, Sweden).
(§2) Cell proliferation kit II (Roche Inc.) is based on calorimetric change of the yellow tetrazolium salt XTT in orange formazan dye by the respiratory chain of viable cells (Roehm, N W, et al., J Immunol Methods 142:257-265, 1991). Cells seeded at a concentration of 5000/well in 100 μl medium in a 96-well plate were treated with different drugs in the given concentration. After 24 or 48 h the cells were incubated, according to the manufacturer's protocol, with XTT labelling mixture. After 4 h the formazan dye is quantified using a scanning multiwell spectrophotometer with a 495-nm filter. The absorbance is directly correlated with number of viable cells. The standard absorbance curve was drawn by means of untreated cells seeded at a concentration of from 1000 to 10 000 cells/well with an increasing rate of 1000 cells/well. All standards and experiments were performed in triplicates.
(§3) The leukemia cell lines K562/S, K562/Vcr 30, HL60/0 and HL60/Nov were proven to express the IGF-1R. This was assayed by Western blotting analysis, as described in Methods and Experiment 1 and 2. The 4 leukemia cell lines were seeded in 96-well plates (medium volume in a well was 100 μl), in RPMI40 medium supplemented with fetal calf serum. After 24 h podophyllotoxin, deoxypodophyllotoxin and other derivatives were added at different concentrations for 72 h. Cell viability was then assayed (see above). IC50 values for each inhibitor and cell lines are shown below (Table 5). The results are based on 3 different experiments.

rats = conditions: cited from earlier work; for LD50 in rats, fold higher than podophyllotoxin: relative to podophyllotoxin
[3] = tested on: HL60/Nov acute myeloid leukemia cells (cytostatic-resistant); assay: Viability of leukemia cells, HL60/Nov; format: cell-based, human; conditions: read-out: IC50 for viability of leukemia cell lines
Method: as §1, §2, §3

[4] = tested on: K562/Vcr30 chronic myeloid leukemia cells (cytostatic-resistant); assay: Viability of leukemia cells, K562/Vcr30; format: cell-based, human; conditions: K562/Vcr30, 72 h, read-out: IC50 for viability of leukemia cell lines
Method: as §1, §2, §3

[5] = tested on: HL60 acute myeloid leukemia cells; assay: Viability of leukemia cells, HL60; format: cell-based, human; conditions: HL60, 72 h, read-out: IC50 for viability of leukemia cell lines
Method: as §1, §2, §3

FM55 melanoma cells = assay: Cell viability (XTT), FM55; format: cell-based, human
Method: as §2
(§4) 5 different types of cell lines were seeded in 96-well plates (medium volume in a well was 100 μl), at a concentration of 10,000 cells/cm^2 in Minimal Essential Medium supplemented with fetal calf serum. When the cells had reached a concentration of 65,000 cells/cm^2, they were treated with different doses of podophyllotoxin and deoxypodophyllotoxin for 48 h. Cell viability was then assayed (see above). IC50 values for each inhibitor and cell line, calculated as the concentration, resulting in a 50% decrease in cell survival, are shown below. The results are based on 4 different experiments.
FM55 melanoma cells were cultured in the same way as described in Experiment 3 and were treated with different doses of podophyllotoxin analogues as described in Experiment 3.

insulin receptor kinase = insulin receptor kinase (Homo sapiens, UniProt P06213); conditions: cited from earlier work
isolated IGF-1R kinase = isolated IGF-1R kinase (Homo sapiens, UniProt P08069); conditions: cited from earlier work
microtubules = conditions: cell free systems; cited from earlier work
IGF-1R [6] = biological target: T1, IGF-1R; assay: Effect on IGF-1R (method not given)
Target sequence in this assay (P08069 31-1367, species assumed): as the sequence (P08069 31-1367) above

Water solubility = format: physicochemical
SK-MEL-28 melanoma cells = assay: Cell viability (XTT), SK-MEL-28; format: cell-based, human; conditions: 48 h
Method: as §2
as §4, with “IC50 values for each inhibitor and cell line, calculated as the concentration, resulting in a 50% decrease in cell survival, are shown below. The results are based on 4 different experiments.” left out

[7] = tested on: MCF-7 breast cancer cells; assay: Cell viability (XTT), MCF-7; format: cell-based, human; conditions: 48 h
Method: as §2
as §4, with “IC50 values for each inhibitor and cell line, calculated as the concentration, resulting in a 50% decrease in cell survival, are shown below. The results are based on 4 different experiments.” left out

malignant cells = assay: Cell death in malignant cells; format: cell-based
microtubuli = conditions: relative to podophyllotoxin; cited from earlier work
[8] = FM55 cells, 1 μM, 1 h, mean of 3
[9] = FM55 cells, 15 μM, 1 h, mean of 3
[10] = FM55 cells, 60 μM, 1 h, mean of 3
[11] = FM55 cells, 0.05 μM, 1 h, podophyllotoxin = 1, mean of 3
[12] = FM55, Experiment 4 (Table 4), read-out: IC50 for viability of FM55 cells

T2 sequence (P08069 31-1367): as above
Chain of isolated IGF-1R kinase (P08069 31-1367): as above
Chain of insulin receptor kinase (P06213 28-1382): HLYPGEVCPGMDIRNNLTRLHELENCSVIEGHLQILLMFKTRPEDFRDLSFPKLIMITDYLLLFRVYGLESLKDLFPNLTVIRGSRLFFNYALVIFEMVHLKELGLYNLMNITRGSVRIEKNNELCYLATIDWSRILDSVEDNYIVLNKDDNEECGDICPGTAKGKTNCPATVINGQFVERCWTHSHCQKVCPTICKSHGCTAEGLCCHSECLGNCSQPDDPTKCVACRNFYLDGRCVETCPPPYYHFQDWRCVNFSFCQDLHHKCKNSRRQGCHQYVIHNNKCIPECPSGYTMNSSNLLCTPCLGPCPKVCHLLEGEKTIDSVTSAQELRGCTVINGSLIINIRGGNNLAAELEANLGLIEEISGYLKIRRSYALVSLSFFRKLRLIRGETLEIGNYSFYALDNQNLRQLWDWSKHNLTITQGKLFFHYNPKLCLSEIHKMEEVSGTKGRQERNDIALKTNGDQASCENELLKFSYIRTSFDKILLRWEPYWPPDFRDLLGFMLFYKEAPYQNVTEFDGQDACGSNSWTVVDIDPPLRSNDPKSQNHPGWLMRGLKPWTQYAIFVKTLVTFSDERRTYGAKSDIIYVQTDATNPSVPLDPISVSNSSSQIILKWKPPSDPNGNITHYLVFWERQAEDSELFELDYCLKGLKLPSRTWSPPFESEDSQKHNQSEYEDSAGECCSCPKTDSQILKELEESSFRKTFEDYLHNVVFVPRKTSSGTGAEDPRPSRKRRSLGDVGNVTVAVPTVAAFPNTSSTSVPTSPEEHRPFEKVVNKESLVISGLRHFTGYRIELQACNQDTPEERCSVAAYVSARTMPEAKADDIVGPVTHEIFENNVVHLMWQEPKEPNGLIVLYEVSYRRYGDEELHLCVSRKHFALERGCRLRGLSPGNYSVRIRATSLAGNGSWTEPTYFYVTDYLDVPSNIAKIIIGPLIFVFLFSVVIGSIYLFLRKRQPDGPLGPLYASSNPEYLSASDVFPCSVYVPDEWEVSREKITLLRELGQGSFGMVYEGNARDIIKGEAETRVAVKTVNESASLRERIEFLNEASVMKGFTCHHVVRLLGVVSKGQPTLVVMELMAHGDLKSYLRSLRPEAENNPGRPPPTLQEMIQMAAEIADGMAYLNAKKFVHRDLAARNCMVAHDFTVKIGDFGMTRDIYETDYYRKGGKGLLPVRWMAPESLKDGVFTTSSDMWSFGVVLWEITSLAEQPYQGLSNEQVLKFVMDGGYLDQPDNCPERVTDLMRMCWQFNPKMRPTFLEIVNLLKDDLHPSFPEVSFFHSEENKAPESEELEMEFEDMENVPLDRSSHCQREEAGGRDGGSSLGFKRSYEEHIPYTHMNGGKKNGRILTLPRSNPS

SMILES: CC/C(=C(\c1ccccc1)c1ccc(OCCN(C)C)cc1)c1ccccc1 [Tamoxifen, tamoxifen]
- Level of IGF-1R phosphorylation in intact cells (IGF-1R [1]; [8]): 95%
- Level of IGF-1R phosphorylation in intact cells (IGF-1R [1]; [9]): 20%
- Level of IGF-1R phosphorylation in intact cells (IGF-1R [1]; [10]): 10%
- tyrosine phosphorylation of the IGF-1R beta-subunit (IGF-1R beta-subunit): efficiently blocked

SMILES: COc1cc([C@@H]2c3cc4c(cc3[C@@H](O)[C@H]3COC(=O)[C@H]23)OCO4)cc(OC)c1OC [Epipodophyllotoxin, epipodophyllotoxin]
- Inhibitory effect on IGF-1R autophosphorylation in intact cells in relation to podophyllotoxin, Relative potency (IGF-1R [1]; [11]): 0.5
- IC50 ([2]; Homo sapiens): 195 nM
- LD50 in rats (rats): > 200 mg/kg
- IC50 ([3]; Homo sapiens, HL-60, 72 h): 90 nM
- IC50 ([4]; Homo sapiens): 450 nM
- IC50 ([5]; Homo sapiens, HL-60): 127 nM

SMILES: COc1cc([C@@H]2c3cc4c(cc3[C@H](OC(C)=O)[C@H]3COC(=O)[C@H]23)OCO4)cc(OC)c1OC [Acetylpodophyllotoxin, acetylpodophyllotoxin]
- Inhibitory effect on IGF-1R autophosphorylation in intact cells in relation to podophyllotoxin, Relative potency (IGF-1R [1]): 1.3
- inhibition of IGF-1R phosphorylation (in words) (IGF-1R [1]; FM55 cells, 0.05 μM, 1 h): potent inhibitors
- IC50 [2]: 80 nM
- LD50 in rats (rats): 185 mg/kg
- IC50 ([3]; 72 h): 46 nM
- IC50 [4]: 140 nM
- IC50 (FM55 melanoma cells; [12]): 30 nM
- IC50 [5]: 48 nM

SMILES: O=c1c(-c2ccc(O)cc2)coc2cc(O)cc(O)c12 [Genistein, genistein]
- Level of IGF-1R phosphorylation in intact cells (IGF-1R [1]; [8]): 100%
- Level of IGF-1R phosphorylation in intact cells (IGF-1R [1]; [9]): 96%
- Level of IGF-1R phosphorylation in intact cells (IGF-1R [1]; [10]): 35%
- effect on IGF-1R phosphorylation (in words) (IGF-1R [1]; FM55 cells, 1, 15, 60 μM, genistein statement at 60 μM): partial inhibitory effect

SMILES: N#C/C(=C\c1ccc(O)c(O)c1)C(=O)c1ccc(O)c(O)c1 [tyrphostin AG 538]
- effect on insulin receptor kinase (insulin receptor kinase): also blocked the insulin receptor kinase
- IC50 (isolated IGF-1R kinase): 400 nM

SMILES: COc1cc([C@@H]2c3cc4c(cc3[C@H](O)[C@H]3COC(=O)[C@H]23)OCO4)cc(OC)c1O [4′-demethylpodophyllotoxin]
- Inhibitory effect on IGF-1R autophosphorylation in intact cells in relation to podophyllotoxin, Relative potency (IGF-1R [1]; [11]): 0.5
- IC50 [2]: 22 nM
- IC50 ([3]; 72 h): 18 nM
- IC50 [4]: 50 nM
- IC50 (FM55 melanoma cells; [12]): 40 nM
- IC50 [5]: 20 nM

SMILES: COc1cc([C@@H]2c3cc4c(cc3C(=O)[C@H]3COC(=O)[C@H]23)OCO4)cc(OC)c1OC [Podophyllotoxone, podophyllotoxone]
- Inhibitory effect on IGF-1R autophosphorylation in intact cells in relation to podophyllotoxin, Relative potency (IGF-1R [1]): 0.3
- IC50 [2]: > 500 nM
- IC50 ([3]; 72 h): > 500 nM
- IC50 [4]: > 500 nM
- IC50 [5]: > 500 nM

SMILES: COc1cc([C@@H]2c3cc4c(cc3[C@@H](O[C@@H]3O[C@@H]5CO[C@@H](C)O[C@H]5[C@H](O)[C@H]3O)[C@H]3COC(=O)[C@H]23)OCO4)cc(OC)c1O [Etoposide, etoposide]
- effect on microtubules (microtubules): no effect on microtubules

SMILES: COc1cc(C2c3cc4c(cc3C(OC3OC5COC(c6ccccc6)OC5C(O)C3O)C3COC(=O)C23)OCO4)cc(OC)c1OC [podophyllotoxin-4,6-O-benzylidene-β-D-glucopyranoside]
- effect on IGF-1R / inhibition of IGF-1R activity (in words) (IGF-1R [6]): completely disappeared

SMILES: COc1cc([C@@H]2c3cc4c(cc3C[C@H]3COC(=O)[C@@H]32)OCO4)cc(OC)c1OC [Deoxypodophyllotoxin, deoxypodophyllotoxin]
- inhibition of IGF-1R phosphorylation (in words) (IGF-1R [1]; FM55 cells, 0.05 μM, 1 h): potent inhibitors
- Inhibitory effect on IGF-1R autophosphorylation in intact cells in relation to podophyllotoxin, Relative potency (IGF-1R [1]; [11]): 0.8
- IC50 [2]: 3 nM
- LD50 in rats, fold higher than podophyllotoxin (rats): > 15 fold
- water solubility (Water solubility): about 0.01 mM
- IC50 ([3]; 72 h): 2 nM
- IC50 [4]: 4 nM
- IC50 (SK-MEL-28 melanoma cells): 40 nM
- IC50 (FM55 melanoma cells; [12]): 40 nM
- IC50 (FM55 melanoma cells; FM55, melanoma, 48 h (Table 3), read-out: IC50 for cell viability): 40 nM
- IC50 [7]: 30 nM
- IC50 [5]: 3 nM

SMILES: COc1cc([C@@H]2c3cc4c(cc3[C@H](O)[C@H]3COC(=O)[C@@H]23)OCO4)cc(OC)c1OC [picropodophyllin]
- cell death in malignant cells (in words) (malignant cells): equipotent to podophyllotoxin
- LD50 in rats, fold higher than podophyllotoxin (rats): more than 35 fold
- effect on IGF-1R / inhibition of IGF-1R activity (in words) (IGF-1R [6]): equipotent to podophyllotoxin
- affinity for microtubuli, fold lower than podophyllotoxin (microtubuli): 50 fold
